Where two headings read alike, the source gives them in different places.
Columns and labels:
[1] = metabolic related experiments (hepatic circulation); details: unlike SN-38
HCC1806 (TROP2+) = experiment: cytotoxic assay (CellTiter-Glo, 72 h) HCC1806; type: cell-based, human; details: Homo sapiens
Description: (§1) Tumor cells were seeded on 96-well plates at the following concentrations: HCC1806 (3,000 cells per well), NCI-N87 (5,000 cells per well), BxPC-3 (2,000 cells per well), Calu-3 (8,000 cells per well), NCI-H23 (TROP2+, 3,000 cells per well), and NCI-H23 (parental, 3,000 cells per well). After overnight incubation, the diluted testing items were added respectively. After 72 h, cell viability was evaluated using a CellTiter-Glo Luminescent Cell Viability Assay (Promega Corp. Madison, WI), following the manufacturer’s instruction.

NCI-N87 (TROP2+) = experiment: cytotoxic assay (CellTiter-Glo, 72 h) NCI-N87; type: cell-based; details: Homo sapiens, read-out: IC50 cell growth inhibition
Description: as §1

NCI-H23 (TROP2-) = experiment: cytotoxic assay (CellTiter-Glo, 72 h) NCI-H23 (parental); type: cell-based; details: Homo sapiens, read-out: IC50 cell growth inhibition
Description: as §1

[2] = tested on: HCC1806, NCI-N87, BxPC3, Calu3, NCI-H23 (TROP2+), NCI-H23 (parental); experiment: cytotoxic assay, range over the six tumor cell lines; type: cell-based; details: Homo sapiens, read-out: IC50 values, range over six cell lines
Description: as §1
To evaluate the effect of SKB264 on tumor cell proliferation, in vitro growth inhibition of cancer cell lines was determined by CellTiter-Glo Luminescent Cell Viability Assay. Cancer cell lines, including HCC1806, NCI-N87, BxPC3, Calu3, and NCI-H23 (TROP2+), highly expressed TROP2, while NCI-H23 (parental) was TROP2-negative ( Figure 3 ). […] NCI-H23 (TROP2+) cells were more sensitive to SKB264 than parental cells (TROP2−). […] Taken together, after SKB264 endocytosed through its interaction with TROP2 on cell surface, the releasing free KL610023 can inhibit tumor cell proliferation.

BXPC3 (TROP2+) = experiment: cytotoxic assay (CellTiter-Glo, 72 h) BxPC-3; type: cell-based; details: Homo sapiens, read-out: IC50 cell growth inhibition
Description: as §1

[3] = payload KL610023 PK in plasma of cynomolgus monkey (Table 5); type: in vivo; parameters: Vz_obs / Cl_obs: unit not given here; details: KL610023 administered, n=4, dose not given
From the text: Since the metabolism of ADC is different from that of the toxic payload ([30], [31]), the linkage of SKB264 mAb can dramatically prolong the half-life of KL610023 as compared to KL610023 alone. Nevertheless, after being released from SKB264, KL610023 could be rapidly eliminated. […] Overall, the proprietary technology used in our study to construct SKB264 could ensure a more precise delivery process.

NCI-H23(TROP2+) = experiment: cytotoxic assay (CellTiter-Glo, 72 h) NCI-H23 (TROP2+); type: cell-based; details: Homo sapiens, read-out: IC50 cell growth inhibition
Description: as §1

For `CC[C@@]1(O)C(=O)OCc2c1cc1n(c2=O)Cc2c-1nc1ccccc1c2CCN(C(C)C)S(C)(=O)=O` [KL610023], the hepatic circulation [1] was “no hepatic circulation”, the IC50 (HCC1806 (TROP2+); HCC1806 (TROP2+), 72 h, Figure 2D, read-out: IC50 cell growth inhibition) was 1.5 nM and the IC50 (HCC1806 (TROP2+); HCC1806, payload comparison, Figure 7C, duplicates, read-out: IC50 inhibition of proliferation of HCC1806 cells) was 1.82 nM. It also gave an IC50 (NCI-N87 (TROP2+)) of 2.01 nM, an IC50 (NCI-H23 (TROP2-)) of 2.14 nM and an IC50 [2] of 1.36 to 6 nM. It also gave an IC50 (BXPC3 (TROP2+)) of 6 nM, an AUC(0-inf) [3] of 97 ± 26.9 ng·h/mL and an AUC(0-t) [3] of 97 ± 26.7 ng·h/mL. For the same compound, the Cl_obs [3] was 535 ± 148, the Cmax [3] was 273 ± 54.4 ng/mL and the Vz_obs [3] was 1119 ± 548. For the same compound, the half-life [3] was 1.6 h and the IC50 (NCI-H23(TROP2+)) was 4.77 nM.
